Measured values reported in PubChem BioAssay (NCI).
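Exposure lasted 48 hours, with cells grown in 96-well plates and compounds tested at five concentrations. Definition used: TGI = concentration required for complete inhibition of growth.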

Assays:
Experiment in all cases: growth of human tumour cells (NCI), 48 h
[1] = test system: RPMI-8226 leukemia
[2] = test system: UACC-257 melanoma
[3] = test system: SF-268 CNS
[4] = test system: HOP-92 NSCLC
[5] = test system: OVCAR-5 ovarian
[6] = test system: NCI-H522 lung
[7] = test system: COLO 205 colon
[8] = test system: MDA-MB-435
[9] = test system: UO-31 renal
[10] = test system: SR leukemia
[11] = test system: UACC-62 melanoma
[12] = test system: SW-620 colon
[13] = test system: SNB-75 CNS
[14] = test system: KM12 colon
[15] = test system: HS 578T breast
[16] = test system: HT29 colon
[17] = test system: MOLT-4 leukemia
[18] = test system: NCI/ADR-RES ovarian
[19] = test system: ACHN renal
[20] = test system: K-562 leukemia
[21] = test system: SK-OV-3 ovarian
[22] = test system: HL-60(TB) leukemia
[23] = test system: M14 melanoma
[24] = test system: OVCAR-8 ovarian
[25] = test system: SF-295 CNS
[26] = test system: BT-549 breast
[27] = test system: PC-3 prostate
[28] = test system: U251 CNS
[29] = test system: CAKI-1 renal
[30] = test system: DU-145 prostate
[31] = test system: SK-MEL-2 melanoma
[32] = test system: MCF7 breast
[33] = test system: SK-MEL-28 melanoma
[34] = test system: A549 NSCLC
[35] = test system: SK-MEL-5 melanoma
[36] = test system: SNB-19 CNS
[37] = test system: SF-539 CNS
[38] = test system: HCT-116 colon
[39] = test system: SN12C renal
[40] = test system: TK-10 renal
[41] = test system: EKVX NSCLC
[42] = test system: NCI-H460 lung
[43] = test system: LOX IMVI melanoma
[44] = test system: NCI-H23 lung
[45] = test system: HCC-2998 colon
[46] = test system: CCRF-CEM leukemia
[47] = test system: MDA-N
[48] = test system: HCT-15 colon
[49] = test system: T-47D breast
[50] = test system: IGROV1 ovarian
[51] = test system: MDA-MB-231 breast
[52] = test system: OVCAR-4 ovarian
[53] = test system: RXF 393 renal
[54] = test system: OVCAR-3 ovarian
[55] = test system: NCI-H226 lung
[56] = test system: 786-0 renal
[57] = test system: A498 renal
[58] = test system: HOP-62 NSCLC
[59] = test system: MALME-3M melanoma

**Q.** How did the TGI [1] turn out when `CCOC(=O)C1=NN(c2ccccc2)C2=CC(C)=NN(C)C(=S)N21` was run?
**A.** The TGI was over 100 µM.

**Q.** What about the TGI [2] of the same compound?
**A.** The TGI was over 100 µM.

**Q.** What about the TGI [3] of the same compound?
**A.** Its TGI is over 100 µM.

**Q.** What about the TGI [4] of the same compound?
**A.** Its TGI is over 100 µM.

**Q.** What about the TGI [5] of the same compound?
**A.** Its TGI is over 100 µM.

**Q.** And the TGI [6]?
**A.** The TGI was over 100 µM.

**Q.** And the TGI [7]?
**A.** The TGI was over 100 µM.

**Q.** And the TGI [8]?
**A.** Its TGI is over 100 µM.

**Q.** What about the TGI [9] of the same compound?
**A.** Its TGI is over 100 µM.

**Q.** And the TGI [10]?
**A.** The TGI was over 100 µM.

**Q.** And the TGI [11]?
**A.** The TGI was over 100 µM.

**Q.** What about the TGI [12] of the same compound?
**A.** Its TGI is over 100 µM.

**Q.** And the TGI [13]?
**A.** Its TGI is over 100 µM.

**Q.** What about the TGI [14] of the same compound?
**A.** The TGI was over 100 µM.

**Q.** And the TGI [15]?
**A.** The TGI was over 100 µM.

**Q.** What about the TGI [16] of the same compound?
**A.** The TGI was over 100 µM.

**Q.** And the TGI [17]?
**A.** The TGI was over 100 µM.

**Q.** And the TGI [18]?
**A.** The TGI was over 100 µM.

**Q.** And the TGI [19]?
**A.** The TGI was over 100 µM.

**Q.** What about the TGI [20] of the same compound?
**A.** Its TGI is over 100 µM.

**Q.** And the TGI [21]?
**A.** Its TGI is over 100 µM.

**Q.** And the TGI [22]?
**A.** The TGI was over 100 µM.

**Q.** And the TGI [23]?
**A.** The TGI was over 100 µM.

**Q.** And the TGI [24]?
**A.** Its TGI is over 100 µM.

**Q.** And the TGI [25]?
**A.** Its TGI is over 100 µM.

**Q.** What about the TGI [26] of the same compound?
**A.** Its TGI is over 100 µM.

**Q.** And the TGI [27]?
**A.** The TGI was over 100 µM.

**Q.** What about the TGI [28] of the same compound?
**A.** Its TGI is over 100 µM.

**Q.** And the TGI [29]?
**A.** Its TGI is over 100 µM.

**Q.** And the TGI [30]?
**A.** Its TGI is over 100 µM.

**Q.** And the TGI [31]?
**A.** Its TGI is over 100 µM.

**Q.** What about the TGI [32] of the same compound?
**A.** Its TGI is over 100 µM.

**Q.** What about the TGI [33] of the same compound?
**A.** Its TGI is over 100 µM.

**Q.** And the TGI [34]?
**A.** The TGI was over 100 µM.

**Q.** What about the TGI [35] of the same compound?
**A.** Its TGI is over 100 µM.

**Q.** What about the TGI [36] of the same compound?
**A.** Its TGI is over 100 µM.

**Q.** What about the TGI [37] of the same compound?
**A.** The TGI was over 100 µM.

**Q.** And the TGI [38]?
**A.** The TGI was over 100 µM.

**Q.** And the TGI [39]?
**A.** Its TGI is over 100 µM.

**Q.** And the TGI [40]?
**A.** Its TGI is over 100 µM.

**Q.** And the TGI [41]?
**A.** The TGI was over 100 µM.

**Q.** And the TGI [42]?
**A.** The TGI was over 100 µM.

**Q.** What about the TGI [43] of the same compound?
**A.** Its TGI is over 100 µM.

**Q.** What about the TGI [44] of the same compound?
**A.** The TGI was over 100 µM.

**Q.** What about the TGI [45] of the same compound?
**A.** Its TGI is over 100 µM.

**Q.** What about the TGI [46] of the same compound?
**A.** Its TGI is over 100 µM.

**Q.** And the TGI [47]?
**A.** The TGI was over 100 µM.

**Q.** And the TGI [48]?
**A.** Its TGI is over 100 µM.

**Q.** And the TGI [49]?
**A.** Its TGI is over 100 µM.

**Q.** And the TGI [50]?
**A.** The TGI was over 100 µM.

**Q.** And the TGI [51]?
**A.** The TGI was over 100 µM.

**Q.** And the TGI [52]?
**A.** Its TGI is over 100 µM.

**Q.** What about the TGI [53] of the same compound?
**A.** Its TGI is over 100 µM.

**Q.** What about the TGI [54] of the same compound?
**A.** Its TGI is over 100 µM.

**Q.** What does the source list for `O=[N+]([O-])c1ccc(NC(=S)Nc2ccccn2)cc1`?
**A.** TGI [1]: > 100 µM; TGI [2]: > 100 µM; TGI [3]: > 91.7 µM; TGI [4]: > 100 µM; TGI [5]: > 100 µM; TGI [6]: > 100 µM; TGI [7]: > 94.5 µM; TGI [8]: > 100 µM; TGI [9]: > 100 µM; TGI [10]: > 100 µM; TGI [11]: > 100 µM; TGI [12]: > 100 µM; TGI [13]: 71.6 µM; TGI [14]: > 55.6 µM; TGI [15]: 63 µM; TGI [16]: > 100 µM; TGI [55]: > 64.2 µM; TGI [17]: > 100 µM; TGI [18]: > 100 µM; TGI [19]: > 100 µM; TGI [20]: > 100 µM; TGI [21]: > 100 µM; TGI [22]: > 73.7 µM; TGI [23]: > 100 µM; TGI [24]: > 100 µM; TGI [25]: > 100 µM; TGI [26]: > 100 µM; TGI [27]: > 100 µM; TGI [28]: > 100 µM; TGI [29]: 18.9 µM; TGI [30]: 35.5 µM; TGI [31]: > 100 µM; TGI [32]: > 100 µM; TGI [33]: > 100 µM; TGI [34]: > 100 µM; TGI [35]: > 100 µM; TGI [36]: > 100 µM; TGI [56]: > 59 µM; TGI [37]: 55.5 µM; TGI [38]: > 100 µM; TGI [39]: > 100 µM; TGI [40]: > 93.2 µM; TGI [41]: > 85.6 µM; TGI [42]: > 100 µM; TGI [43]: > 100 µM; TGI [57]: 45.6 µM; TGI [44]: > 100 µM; TGI [45]: > 100 µM; TGI [46]: > 100 µM; TGI [47]: > 100 µM; TGI [58]: 44.8 µM; TGI [59]: > 100 µM; TGI [48]: > 100 µM; TGI [49]: > 100 µM; TGI [50]: > 100 µM; TGI [51]: > 100 µM; TGI [52]: > 100 µM; TGI [53]: 17.8 µM; TGI [54]: 99.4 µM
